Measurements from US12226410B2, “Methods for enhancing cellular clearance of pathological molecules via activation of the cellular protein ykt6” (NORTHWESTERN UNIVERSITY, priority 2019, dated 2025).

Key:
a-syn = assay: Sequential extraction/western blot of a-syn in FTI-treated A53T iPSn; type: cell-based, human; conditions: 5 nM, 7d
Protocol: FIGS. 6A, 6B, 6C, 6D, 6E, 6F, and 6G. FTIs enhance lysosomal GCase activity and reduce pathological a-syn by blocking ykt6 farnesylation. 6A) GCase activity in FTI-treated A53T iPSn at d80 (LNK-754 5 nM, 5d). 6B) GCase activity in FTI-treated A53T iPSn expressing empty vector (vect) or ykt6-CS (n=4). 6C) Lysosomal GCase activity was assessed in FTI-treated SHSY5Y cells transfected with scrambled or ykt6 shRNA (KD) (n=3). 6D) Quantification of Triton X-100 soluble (T-sol) a-syn by western blot from FTI-treated A53T iPSn (5 nM, 7d). *, non-specific band. (n=3). 6E) Quantification of insoluble a-syn from A53T iPSn as in D (n=3). 6F) Insoluble a-syn in FTI-treated H4 cells (5 nM, 5 days) transfected with either scrambled or ykt6 shRNA (n=6). 6G) Neuron viability was assessed in FTI-treated A53T iPSn (5 nM, 14d from d86-d100) by quantification of neurofilament protein. Right, neuron viability in FTI-treated A53T iPSn expressing empty vector or ykt6-CS (n=4). Values are the mean+/−SEM, *p<0.05, **p<0.01, ***p<0.001.
Sequential biochemical extraction for the analysis of pathological a-synuclein. […] Protein concentration was measured by BCA assay (Pierce). […]
Western blot analysis. […] The blots were washed as before and scanned/analyzed using an Odyssey infrared imaging system with Image Studio Software. […]

ykt6 = assay: FTI treatment of DASYN53 mice: membrane-associated ykt6 and SNARE complexes; type: in vivo; conditions: DASYN53 mice 12-14 months; i.p. 0.9 mg/kg, 26d; olfactory bulbs, midbrain
Protocol: FIGS. 7A, 7B, 7C, 7D, and 7E. FTI treatment restores functional membrane-associated ykt6 complexes in DASYN53 mice. 7A) Immunohistochemistry in the midbrain of mice showing ykt6, tyrosine hydroxylase (TH), NeuN, and nuclei (DAPI). Scale bar, 50 μm. 7B) Ykt6 membrane shift analysis in olfactory bulbs of FTI (LNK-754)-injected DASYN53 mice (12-14 months, i.p. 26d, 0.9 mg/kg) (n=5, non-transgenic (nTg)+veh; n=4, DASYN53+veh; n=4 DASYN53+FTI). GAPDH and sec22b are loading controls. 7C) SEC/western blot analysis of midbrains of FTI-treated DASYN53 mice. Inputs are shown on the left. NSE is a loading control. […] (n=3, nTg+veh; n=4, DASYN53+veh; n=4 DASYN53+FTI). 7D) Quantification of complexes from SEC in 7C. 7E) GCase maturation was assessed in midbrain lysates by endo H resistance (n=4, nTg+veh; n=4, DASYN53+veh; n=4 DASYN53+FTI). For all quantifications, each point represents a measurement from an individual animal. Values are the mean+/−SEM, *p<0.05; **p<0.01, ***p<0.001, ANOVA with Tukey's post-hoc test.
Treatment of C57Bl/6 and DASYN53 mice with farnesyltransferase inhibitors. 3 mo old C57BL6 mice were i.p. injected daily with 0.9 mg/kg LNK-754 that was formulated in a vehicle of 0.5% sodium carboxymethylcellulose and filtered before use for 14 days. DASYN53 mice were i.p. injected daily with 0.9 mg/kg LNK-754 as above. […]

Structure (SMILES): C#Cc1cccc(-c2cc(=O)n(C)c3ccc([C@](O)(c4ccc(Cl)cc4)c4cncn4C)cc23)c1 [LNK-754]
- soluble and insoluble levels of a-syn (C20, syn303) (a-syn): reduced
- reduced membrane-associated ykt6 and SNARE complexes of DASYN53 mice (ykt6): reversed these effects
